Key:
Type in all cases: in vivo, C57BL/6 mice
[1] = system: IBD model mice (DSS-induced enteritis); test: DSS-induced colitis (IBD) model mice, Example 3: peptide-containing hydrogel embedded on the back; body weight, large intestine length; conditions: 10th day of DSS drinking, MedGel PI5 hydrogel with 20 μl of 5 μg/μl peptide embedded on the back one day before DSS, n=3
Procedure: (§1) Colitis was induced in C57BL/6 mice (8 to 10-week-old, male, body weight about 20 g) by allowing them to freely drink the 3% DSS aqueous solution in place of purified water (RO water) (drinking of the DSS aqueous solution was continued until the removal of the large intestine). Mice that were allowed to freely drink purified water (RO water) (hereinafter, referred to as “normal mice”) were used as comparative subjects.
(§2) The DSS aqueous solution and the HMGB1 peptide (1-44) were prepared and the inflammatory bowel disease model mice were produced in the same way as Example 1.
A bioabsorbable hydrogel (MedGel (registered trademark) PI5, manufactured by MedGEL CO., LTD) cut into a size of about 5 mm×5 mm was soaked with 20 μl of an HMGB1 peptide (1-44) solution, which has been adjusted to a concentration of 5 μg/μl with saline as the vehicle, by dripping and allowed to stand under ice-cooling for 30 minutes. The resulting hydrogel was used for embedding in the mice of the HMGB1 peptide (1-44) administration group. […]
(§3) The body weight of the mice was measured daily from the start of drinking the DSS aqueous solution until the removal of the large intestine. On the 10th day of DSS drinking, the large intestine was excised from the mice, and the length of the large intestine was measured.

IL-1β = test: Example 1: inflammatory cytokine mRNA in large intestine by quantitative PCR (IL-1β); conditions: 9th day of DSS drinking, 5 mg/kg i.v. on 6th and 7th days, FIG. 3
From the text: as §1
(§4) The IBD model mice produced as described above were divided into the HMGB1 peptide (1-44) administration group (n=3) and the control group (n=3). […] Hereinafter, “the Xth day after the start of drinking the DSS aqueous solution” is expressed as an abbreviation “the Xth day of DSS drinking”.
(§5) The body weight of the mice was measured daily from the start of drinking the DSS aqueous solution until the removal of the large intestine. On the 9th day of DSS drinking, the large intestine was excised from the mice, and the length of the large intestine was measured. mRNA was extracted from the terminal part near the anus in the excised large intestine, and the expression level of inflammatory cytokines (TNF-α, IL-1β, and IL-6) was analyzed by quantitative PCR.

[2] = system: IBD model mice (DSS-induced enteritis); test: DSS-induced colitis (IBD) model mice, Example 2: intravenous peptide on 1st, 3rd, 5th and 7th days; body weight, large intestine length, HE staining; conditions: 10th day of DSS drinking, 5 mg/kg i.v. on 1st
Procedure: as §1, §2
The IBD model mice produced as described in Example 1 were divided into the HMGB1 peptide (1-44) administration group (n=3) and the control group (n=3). The test substance was administered by injecting an HMGB1 peptide (1-44) solution, which has been adjusted to a concentration of 0.5 mg/ml with saline as the vehicle, into the vein at a dose of 200 μl/animal (5 mg/kg as the peptide dose) on the 1st, 3rd, 5th, and 7th days of DSS drinking. In the control group, saline was injected into the vein at a dose of 200 μl/animal on the 1st, 3rd, 5th, and 7th days of DSS drinking. No substance was administered to the normal mice (n=3).
as §3, with “measured. Tissue sections of the cross-section of the intestinal tract were produced using the terminal part near the anus of the excised large intestine, and hematoxylin-eosin (HE) staining was performed.” for “measured.”

TNF-α = test: Example 1: inflammatory cytokine mRNA in large intestine by quantitative PCR (TNF-α); conditions: 9th day of DSS drinking, 5 mg/kg i.v. on 6th and 7th days, FIG. 3
From the text: as §1, §4, §5

IL-6 = test: Example 1: inflammatory cytokine mRNA in large intestine by quantitative PCR (IL-6); conditions: 9th day of DSS drinking, 5 mg/kg i.v. on 6th and 7th days, FIG. 3
From the text: as §1, §4, §5

[3] = system: IBD model mice (DSS-induced enteritis); test: DSS-induced colitis (IBD) model mice, Example 1: intravenous peptide on 6th and 7th days; body weight and large intestine length; conditions: 9th day of DSS drinking, 5 mg/kg i.v. on 6th and 7th days, n=3
Procedure: Dextran sulfate sodium (DSS) (molecular weight 5,000 to 6,000, manufactured by Nacalai Tesque, catalog No. 10930-94) was dissolved in water to prepare a 3% (w/v) DSS aqueous solution. A peptide consisting of amino acid residues 1-44 of the human-derived HMGB1 protein (SEQ ID NO: 1) was chemically synthesized by a solid-phase method. Hereinafter, the HMGB1 fragment peptide is referred to as the HMGB1 peptide (1-44) and is expressed as an abbreviation “1-44” in the drawings corresponding to the Examples. […]
as §4, §5

## HMGB1 peptide (1-44): peptide consisting of amino acid residues 1-44 of the human-derived HMGB1 protein (SEQ ID NO: 1), chemically synthesized by a solid-phase method (MGKGDPKKPRGKMSSYAFFVQTCREEHKKKHPDASVNFSEFSKK)
[1]; FIG. 7
  body weight vs control group: higher than that of the control group
[1]; FIG. 8
  length of the large intestine vs control group: longer than that of the control group
IL-1β
  expression level of IL-1β in the large intestine vs control group: significantly lower than that of the control group
[2]; FIG. 6
  mucosal tissue damage of the large intestine (HE staining): damage of the mucosal tissue was suppressed
[2]; n=3, FIG. 4
  body weight vs control group: significantly higher than that of the control group
[2]; n=3, FIG. 5
  length of the large intestine vs control group: significantly longer than that of the control group
TNF-α
  expression level of TNF-α in the large intestine vs control group: significantly lower than that of the control group
IL-6
  expression level of IL-6 in the large intestine vs control group: significantly lower than that of the control group
[3]; FIG. 1
  body weight vs control group: significantly higher than that of the control group
[3]; FIG. 2
  length of the large intestine vs control group: significantly longer than that of the control group

From patent US11298403B2, “Therapeutic agent for inflammatory bowel disease” (StemRIM Inc., priority 2017, dated 2022)
